Article PMC11898488, “A2A Adenosine Receptor Antagonists and Their Efficacy in Rat Models of Parkinson’s Disease” (Cells, 2025)
Read-outs that look alike come from different tables or passages of the source.

Tests used:
human A1AR [1] = target: T1, human A1AR (Homo sapiens, UniProt P30542); conditions: [3H]-CCPA displacement, human A1AR in CHO cells; geometric mean with 95% confidence limits; read-out: Ki A1; cited from earlier work
T1 construct: expressed in transfected cells; host or cells: CHO cells, crude membrane fractions
T1 sequence (P30542 1-326): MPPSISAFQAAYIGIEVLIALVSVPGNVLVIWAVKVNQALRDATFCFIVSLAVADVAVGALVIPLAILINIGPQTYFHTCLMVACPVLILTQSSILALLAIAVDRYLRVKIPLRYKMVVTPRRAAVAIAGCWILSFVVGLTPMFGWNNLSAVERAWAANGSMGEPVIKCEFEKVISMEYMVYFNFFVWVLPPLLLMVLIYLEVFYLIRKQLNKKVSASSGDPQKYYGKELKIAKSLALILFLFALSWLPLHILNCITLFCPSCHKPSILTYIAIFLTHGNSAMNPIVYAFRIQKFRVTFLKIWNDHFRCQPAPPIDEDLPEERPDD

human A2BAR [2] = target: T2, human A2BAR (Homo sapiens, UniProt P29275); conditions: inhibition of NECA-stimulated AC activity, CHO cells expressing human A2BAR; geometric mean with 95% confidence limits; read-out: IC50 A2B; cited from earlier work
T2 construct: expressed in transfected cells; host or cells: CHO cells, crude membrane fractions
T2 sequence (P29275 1-332): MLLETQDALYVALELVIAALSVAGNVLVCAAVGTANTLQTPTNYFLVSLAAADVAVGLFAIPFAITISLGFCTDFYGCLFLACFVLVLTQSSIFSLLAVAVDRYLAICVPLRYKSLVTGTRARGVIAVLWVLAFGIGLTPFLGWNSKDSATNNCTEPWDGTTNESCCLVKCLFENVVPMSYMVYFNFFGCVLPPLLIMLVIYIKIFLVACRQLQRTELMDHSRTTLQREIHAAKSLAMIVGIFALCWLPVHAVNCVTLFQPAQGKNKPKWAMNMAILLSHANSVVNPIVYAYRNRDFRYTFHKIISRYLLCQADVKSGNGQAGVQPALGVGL

human A2AAR [3] = target: T3, human A2AAR (Homo sapiens, UniProt P29274); conditions: [3H]-NECA displacement, human A2AAR in CHO cells; geometric mean with 95% confidence limits; read-out: Ki A2A; cited from earlier work
T3 construct: expressed in transfected cells; host or cells: CHO cells, crude membrane fractions

human A3AR [4] = target: T4, human A3AR (Homo sapiens, UniProt P0DMS8); conditions: [3H]-NECA displacement, human A3AR in CHO cells; geometric mean with 95% confidence limits; read-out: Ki A3; cited from earlier work
T4 construct: expressed in transfected cells; host or cells: CHO cells, crude membrane fractions
T4 sequence (P0DMS8 1-318): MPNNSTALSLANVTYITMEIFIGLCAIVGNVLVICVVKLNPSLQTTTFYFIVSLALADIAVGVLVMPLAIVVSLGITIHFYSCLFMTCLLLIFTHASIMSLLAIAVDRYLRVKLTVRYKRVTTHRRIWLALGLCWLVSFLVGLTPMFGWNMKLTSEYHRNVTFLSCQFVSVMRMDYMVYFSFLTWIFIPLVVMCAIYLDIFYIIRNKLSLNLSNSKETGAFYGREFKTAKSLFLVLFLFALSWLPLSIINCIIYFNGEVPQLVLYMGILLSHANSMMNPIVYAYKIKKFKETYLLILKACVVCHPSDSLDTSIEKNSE

human A2AAR [5] = target: T3, human A2AAR; experiment: Radioligand binding, displacement of [3H]NECA at human A2AAR in CHO cells; conditions: for Selectivity A1/A2A / Selectivity A3/A2A: ratio of Ki values at human ARs; for Ki: [3H]-NECA displacement, human A2AAR in CHO cells, geometric mean with 95% confidence limits, read-out: Ki A2A
Experimental: (§1) The radioligand binding experiments were carried out exactly as described previously. For A1AR binding, 1 nM [^3H]CCPA was used as a radioligand, whereas 30 and 10 nM [^3H]NECA were used for A2A and A3 ARs, respectively. Nonspecific binding was determined in the presence of 1 mM theophylline (A1AR) or […] R-PIA (A2A and A3 ARs). Ki values were calculated from competition curves by nonlinear curve fitting with the program SCTFIT [31].
(§2) CHO cells stably transfected with human ARs were grown adherently and maintained in Dulbecco’s Modified Eagles Medium with nutrient mixture F12 (DMEM/F12) without nucleosides, containing 10% fetal calf serum, penicillin (100 U/mL), streptomycin (100 μg/mL), L-glutamine (2 mM), and Geneticin (G-418, 0.2 mg/mL) at 37 °C in 5% CO2/95% air, as described earlier. For radioligand binding studies and measurement of adenylyl cyclase activity, crude membrane fractions were prepared from fresh or frozen cells with two different protocols described earlier. The determination of adenylyl cyclase activity followed the procedure described earlier. IC50 values for the inhibition of adenylyl cyclase stimulated (in the case of A2BAR) with 5 μM NECA were calculated with the Hill equation and converted to Ki values with the Cheng and Prusoff equation [32].
(§3) [^3H]CCPA (2-chloro-N^6-cyclopentylAdo) and [^3H]NECA (5′-N-ethylcarboxamidoAdo) were used as specific radioligands at A1ARand A2A / A3 ARs, respectively. Furthermore, the ability of the same compounds to inhibit NECA-stimulated adenylyl cyclase activity was evaluated at the A2BAR subtype. The results of the binding studies (A1, A2A, and A3 ARs) and functional data (A2BAR) are reported in Table 1 as Ki or IC50 values in nM, together with the data on the reference compounds 1–3.

[6] = tested on: tacrine-induced tremulous jaw movements; experiment: Tacrine-induced tremulous jaw movements; type: in vivo, rat; conditions: rats, 5 mg/kg i.p. pretreatment, tacrine 2.5 mg/kg i.p.; 60 min, versus vehicle
Experimental: Rats were divided into two groups and treated with vehicle or 4 (5 mg/kg. i.p.). Tacrine (2.5 mg/kg i.p.) was administered 20 min after vehicle or 4, and the number of TJMs and bursts of TJMs (i.e., episodes of consecutive TJMs) were measured for 60 min. TJMs were defined as vertical deflections of the lower jaw not directed at a particular stimulus. Yawns, tongue protrusions, and stereotypies, such as grooming, were not scored. In the tacrine-induced TJM tests, the mean and S.E.M of the number of TJMs and bursts were calculated. Significant differences between groups were evaluated by Student’s t-test.

human A2BAR [7] = target: T2, human A2BAR; experiment: Inhibition of NECA-stimulated adenylyl cyclase activity at human A2BAR; type: biochemical; conditions: inhibition of NECA-stimulated AC activity, CHO cells expressing human A2BAR; geometric mean with 95% confidence limits; read-out: IC50 A2B
Experimental: as §2, §3

human A1AR [8] = target: T1, human A1AR; experiment: Radioligand binding, displacement of [3H]CCPA at human A1AR in CHO cells; conditions: [3H]-CCPA displacement, geometric mean with 95% confidence limits, read-out: Ki A1
Experimental: as §1, §2, §3

human A3AR [9] = target: T4, human A3AR; experiment: Radioligand binding, displacement of [3H]NECA at human A3AR in CHO cells; conditions: [3H]-NECA displacement, geometric mean with 95% confidence limits, read-out: Ki A3
Experimental: as §1, §2, §3

T3 sequence (P29274 whole entry): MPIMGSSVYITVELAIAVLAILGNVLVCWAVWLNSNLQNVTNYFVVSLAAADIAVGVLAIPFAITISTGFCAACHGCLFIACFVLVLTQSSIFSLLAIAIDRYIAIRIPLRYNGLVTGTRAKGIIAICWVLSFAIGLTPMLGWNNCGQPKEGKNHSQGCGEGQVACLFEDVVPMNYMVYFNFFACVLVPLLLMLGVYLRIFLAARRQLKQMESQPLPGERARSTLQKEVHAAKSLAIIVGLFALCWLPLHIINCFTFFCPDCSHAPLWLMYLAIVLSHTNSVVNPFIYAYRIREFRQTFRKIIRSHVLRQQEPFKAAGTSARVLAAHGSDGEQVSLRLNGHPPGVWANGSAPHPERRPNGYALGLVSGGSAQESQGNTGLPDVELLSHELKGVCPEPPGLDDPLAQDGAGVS

SMILES | Ki (human A1AR [1]) [µM] | IC50 (human A2BAR [2]) [µM] | Ki (human A2AAR [3]) [µM] | Ki (human A3AR [4]) [µM] | Selectivity A1/A2A (human A2AAR [5]) | Selectivity A3/A2A (human A2AAR [5]) | Number of tremor bursts induced by tacrine [6] | Number of tremulous jaw movements induced by tacrine [6] | IC50 (human A2BAR [7]) [µM] | Ki (human A2AAR [5]) [µM] | Ki (human A1AR [8]) [µM] | Ki (human A3AR [9]) [µM]
CCn1c(Br)nc2c(N)nc(OCCc3ccccc3)nc21 [Compound 1, 8-bromo-9-ethyl-2-phenetoxyadenine] | 0.023 | 0.569 | 0.0017 | 1.09 | 14 | 641 | – | – | – | – | – | –
CCOc1nc2c(N)nc(OCCc3ccccc3)nc2n1CC [Compound 4, 8-ethoxy-9-ethyl-2-phenethoxyadenine] | – | – | – | – | 23 | 97 | but not tremor bursts | significantly reduced | 6.51 | 0.0037 | 0.086 | 0.359
CCn1c(I)nc2c(N)nc(OCCc3ccccc3)nc21 [Compound 5, 9-ethyl-8-iodo-2-phenethoxy-9H-purin-6-amine] | – | – | – | – | 21 | 408 | – | – | 0.719 | 0.0012 | 0.025 | 0.489
